Measured values published in patent publication US20230310388A1, “Methods and Compositions for Treating Fungal Infections” (Neoculi Pty Ltd, priority 2020, published 2023).
Values after ≈ are worked out from the molar mass of the structure shown. Values joined by “and” are separate entries in the source; they are usually repeats but may differ in a detail not shown here. Identical values can stand only once. Blank lines part the entries; values can stand above or below the molecule they belong to.

Key:
Candida albicans [1] = test: CLSI broth microdilution MIC (Example 6); type: cell-based
Procedure: (§1) Antifungal minimum inhibitory concentration (MIC) testing was undertaken as recommended by the CLSI (1). Briefly, antifungal susceptibility tests were performed for amphotericin B, robenidine (NCL812) and 10 robenidine analogs (NCL023, NCL024, NCL097, NCL113, NCL115, NCL195, NCL219, NCL220, NCL259, NCL265) by standard broth microdilution method (CLSI) in RPMI 1640. Various concentrations (ranging from high to low) of the selected compounds were prepared in RPMI 1640 medium by double dilution in 96-well microtitre plates. Each well contained an inoculum of approximately 2×10^3 cells/mL. The wells without addition of drugs served as negative (no inoculum) and positive (inoculum only) growth controls. Microtitre plates were incubated at 35° C. for 24-48 hours. […] Antifungal MICs were determined for each isolate in duplicate; if the values obtained were different, the MIC test was repeated a third time.

Cryptococcus neoformans [2] = test: CLSI broth microdilution MIC (Example 6); type: cell-based
Procedure: as §1

[3] = system: Candida albicans ATCC14053; test: Broth micro-dilution screen at 16 μg/mL and MIC (Example 9); type: cell-based; settings: for MIC: C. albicans ATCC14053, test range 0.25-64 μg/mL, duplicate; for Screen at 16 μg/mL: single concentration 16 μg/mL, Growth or No growth of C. albicans ATCC14053
Procedure: The antifungal activity of 201 NCL analogs against Candida albicans ATCC14053 in vitro was investigated. A broth micro-dilution method was used, according to CLSI guidelines as described. NCL analogs were dissolved in DMSO and originally screened at a single concentration of 16 μg/mL.

C. gattii = test: CLSI broth microdilution MIC (Example 6); type: cell-based, Cryptococcus gattii
Procedure: as §1

Candida albicans [4] = test: CLSI broth microdilution MIC (Example 4); type: cell-based; settings: for antifungal activity against the two isolates of Candida albicans: summary in words
Method in brief: (§2)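 CLSI broth microdilution in RPMI 1640 with two-fold compound dilutions and inoculum about 2×10^3 cells/mL. Plates incubated 35° C for 24-48 hours; MICs determined in duplicate, with a third test when the duplicates differed.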

Cryptococcus neoformans [5] = test: CLSI broth microdilution MIC (Example 4); type: cell-based
Method in brief: as §2

Candida albicans [6] = test: CLSI broth microdilution MIC (Example 5); type: cell-based; settings: for activity against one or more isolates of Cryptococcus neoformans and Candida albicans: summary in words
Procedure: as §1, with “CLSI.” for “CLSI (1).”, “and” for “and 10”, “(NCL23, NCL24, NCL97,” for “(NCL023, NCL024, NCL097,”

Cryptococcus neoformans [7] = test: CLSI broth microdilution MIC (Example 5); type: cell-based
Procedure: as §1, with “CLSI.” for “CLSI (1).”, “and” for “and 10”, “(NCL23, NCL24, NCL97,” for “(NCL023, NCL024, NCL097,”

Candida albicans [8] = test: CLSI broth microdilution MIC (Example 3); type: cell-based
Procedure: as §1, with “the CLSI.” for “the CLSI (1).”, “and 5” for “and 10”, “analogs (NCL062,” for “analogs (NCL023, NCL024, NCL097, NCL113, NCL115,”, “NCL219,” for “NCL219, NCL220,”, “time. Antifungal susceptibility tests were performed for amphotericin B and NCL analogs by standard broth microdilution method (CLSI). Briefly, various concentrations (ranging from high to low) of the selected compounds were prepared in RPMI 1640 medium by double dilution in the 96-well plates. Each well contained an inoculum of approximately 2×10^3 cells/mL. The wells without addition of drugs served as a negative control. Micro plates were incubated at 35° C. for 48 hour and read spectrophotometrically at 600 nm, using a microplate reader (Multiskan-EX; Thermo Elect. Corp., USA).” for “time.”

Candida parapsilosis = test: CLSI broth microdilution MIC (Example 3); type: cell-based; settings: Candida parapsilosis ATCC 22019
Procedure: as §1, with “the CLSI.” for “the CLSI (1).”, “and 5” for “and 10”, “analogs (NCL062,” for “analogs (NCL023, NCL024, NCL097, NCL113, NCL115,”, “NCL219,” for “NCL219, NCL220,”, “time. Antifungal susceptibility tests were performed for amphotericin B and NCL analogs by standard broth microdilution method (CLSI). Briefly, various concentrations (ranging from high to low) of the selected compounds were prepared in RPMI 1640 medium by double dilution in the 96-well plates. Each well contained an inoculum of approximately 2×10^3 cells/mL. The wells without addition of drugs served as a negative control. Micro plates were incubated at 35° C. for 48 hour and read spectrophotometrically at 600 nm, using a microplate reader (Multiskan-EX; Thermo Elect. Corp., USA).” for “time.”

C. albicans = test: Fluconazole MIC given as descriptor of azole resistant clinical isolates (Table 10); type: cell-based; settings: Candida albicans
[9] = human clinical isolate C. neoformans serotype A/D hybrid
[10] = human clinical isolate C. neoformans var grubii 16-90050434
[11] = human clinical isolate C. neoformans var grubii 17-90028233
[12] = human clinical isolate C. neoformans var grubii 17-93996464
[13] = human clinical isolate C. neoformans var grubii 17-93996964
[14] = human clinical isolate C. gatti 17-90232099
[15] = human clinical isolate C. gattii 16-90050373
[16] = human clinical isolate C. gattii 17-90028211
[17] = human clinical isolate C. gattii 17-90028217
[18] = human clinical isolate C. gattii 17-90028242
[19] = clinical isolate C. albicans 12-93301752 Azole Resistant
[20] = clinical isolate C. albicans 14-90045999 Azole Resistant
[21] = clinical isolate C. albicans 15-45171061
[22] = clinical isolate C. albicans 15-91329871
[23] = clinical isolate C. albicans 16-24136919 Azole Resistant
[24] = clinical isolate C. albicans 16-46177400
[25] = clinical isolate C. albicans 16-90050810
[26] = clinical isolate C. albicans 16-90054237
[27] = clinical isolate C. albicans 18-144-00196
[28] = clinical isolate C. albicans 18-148-08188 Azole Resistant
[29] = Candida albicans ATCC 90028, 1st
[30] = Candida albicans ATCC 90028, 2nd

MIC (Candida albicans [1]; C. albicans SA3): 16 µg/mL (≈ 54.6 µM)
MIC (Candida albicans [1]; Candida albicans ATCC 90028): 16 µg/mL (≈ 54.6 µM)
MIC (Cryptococcus neoformans [2]; Cryptococcus neoformans SA1): 2 µg/mL (≈ 6.83 µM)
MIC (Cryptococcus neoformans [2]; Cryptococcus neoformans SA2): 2 µg/mL (≈ 6.83 µM)
MIC (Cryptococcus neoformans [2]; [9]): 8 µg/mL (≈ 27.3 µM)
MIC (Cryptococcus neoformans [2]; [10]): 8 µg/mL (≈ 27.3 µM)
MIC (Cryptococcus neoformans [2]; [11]): 8 µg/mL (≈ 27.3 µM)
MIC (Cryptococcus neoformans [2]; [12]): 8 µg/mL and 16 µg/mL
MIC (Cryptococcus neoformans [2]; [13]): 8 µg/mL (≈ 27.3 µM)
MIC [3]: 8 µg/mL and 16 µg/mL
MIC (C. gattii; [14]): 8 µg/mL (≈ 27.3 µM)
MIC (C. gattii; [15]): 8 µg/mL (≈ 27.3 µM)
MIC (C. gattii; [16]): 8 µg/mL (≈ 27.3 µM)
MIC (C. gattii; [17]): 8 µg/mL and 16 µg/mL
MIC (C. gattii; [18]): 8 µg/mL (≈ 27.3 µM)
MIC at 24-48 hours (Candida albicans [4]; Candida albicans ATCC 90028): 16 µg/mL (≈ 54.6 µM)
MIC at 24-48 hours (Candida albicans [4]; Candida albicans SA3): 16 µg/mL (≈ 54.6 µM)
MIC at 24-48 hours (Cryptococcus neoformans [5]; Cryptococcus neoformans SA1): 2 µg/mL (≈ 6.83 µM)
MIC at 24-48 hours (Cryptococcus neoformans [5]; Cryptococcus neoformans SA2): 2 µg/mL (≈ 6.83 µM)
MIC (Candida albicans [6]; C. albicans SA3): 16 µg/mL (≈ 54.6 µM)
MIC (Candida albicans [6]; Candida albicans ATCC 90028): 16 µg/mL (≈ 54.6 µM)
MIC (Candida albicans [6]; [19]): 16 µg/mL (≈ 54.6 µM)
MIC (Candida albicans [6]; [20]): >16 µg/mL
MIC (Candida albicans [6]; [21]): 8 µg/mL (≈ 27.3 µM)
MIC (Candida albicans [6]; [22]): >16 µg/mL
MIC (Candida albicans [6]; [23]): 8 µg/mL (≈ 27.3 µM)
MIC (Candida albicans [6]; [24]): >16 µg/mL
MIC (Candida albicans [6]; [25]): >16 µg/mL
MIC (Candida albicans [6]; [26]): 32 µg/mL (≈ 109 µM)
MIC (Candida albicans [6]; [27]): >16 µg/mL
MIC (Candida albicans [6]; [28]): >16 µg/mL
MIC (Cryptococcus neoformans [7]; Cryptococcus neoformans SA1): 2 µg/mL (≈ 6.83 µM)
MIC (Cryptococcus neoformans [7]; Cryptococcus neoformans SA2): 2 µg/mL (≈ 6.83 µM)
MIC (Candida albicans [8]; [29]): 4 µg/mL (≈ 13.7 µM)
MIC (Candida albicans [8]; [30]): 8 µg/mL (≈ 27.3 µM)
MIC (Candida albicans [8]; Candida albicans, 1st): 4 µg/mL (≈ 13.7 µM)
MIC (Candida albicans [8]; Candida albicans, 2nd): 4 µg/mL (≈ 13.7 µM)
MIC (Candida parapsilosis; 1st): 4 µg/mL (≈ 13.7 µM)
MIC (Candida parapsilosis; 2nd): 4 µg/mL (≈ 13.7 µM)
SMILES: [H]/N=C(\N)NN=C(CC1CCCCC1)c1ccc(Cl)cc1 [NCL259]
Screen at 16 μg/mL [3]: No growth
antifungal activity against the two isolates of Candida albicans (Candida albicans [4]): high antifungal activity
activity against one or more isolates of Cryptococcus neoformans and Candida albicans (Candida albicans [6]): highly active

MIC (C. albicans; C. albicans 12-93301752 Azole Resistant): 32 µg/mL (≈ 104 µM)
MIC (C. albicans; C. albicans 14-90045999 Azole Resistant): 64 µg/mL (≈ 209 µM)
MIC (C. albicans; C. albicans 16-24136919 Azole Resistant): 256 µg/mL (≈ 836 µM)
MIC (C. albicans; C. albicans 18-148-08188 Azole Resistant): 8 µg/mL (≈ 26.1 µM)
SMILES: OC(Cn1cncn1)(Cn1cncn1)c1ccc(F)cc1F [Fluconazole]

MIC (Candida albicans [1]; C. albicans SA3): 8 µg/mL (≈ 28.5 µM)
MIC (Candida albicans [1]; Candida albicans ATCC 90028): 8 µg/mL (≈ 28.5 µM)
MIC (Cryptococcus neoformans [2]; Cryptococcus neoformans SA1): 1 µg/mL (≈ 3.56 µM)
MIC (Cryptococcus neoformans [2]; Cryptococcus neoformans SA2): 1 µg/mL (≈ 3.56 µM)
MIC (Cryptococcus neoformans [2]; [9]): 8 µg/mL (≈ 28.5 µM)
MIC (Cryptococcus neoformans [2]; [10]): 4 µg/mL (≈ 14.2 µM)
MIC (Cryptococcus neoformans [2]; [11]): 8 µg/mL (≈ 28.5 µM)
MIC (Cryptococcus neoformans [2]; [12]): 8 µg/mL (≈ 28.5 µM)
MIC (Cryptococcus neoformans [2]; [13]): 8 µg/mL (≈ 28.5 µM)
MIC [3]: 2 µg/mL (≈ 7.12 µM)
MIC (C. gattii; [14]): 8 µg/mL (≈ 28.5 µM)
MIC (C. gattii; [15]): 8 µg/mL (≈ 28.5 µM)
MIC (C. gattii; [16]): 8 µg/mL and 16 µg/mL
MIC (C. gattii; [17]): 4 µg/mL (≈ 14.2 µM)
MIC (C. gattii; [18]): 8 µg/mL (≈ 28.5 µM)
MIC at 24-48 hours (Candida albicans [4]; Candida albicans ATCC 90028): 8 µg/mL (≈ 28.5 µM)
MIC at 24-48 hours (Candida albicans [4]; Candida albicans SA3): 8 µg/mL (≈ 28.5 µM)
MIC at 24-48 hours (Cryptococcus neoformans [5]; Cryptococcus neoformans SA1): 1 µg/mL (≈ 3.56 µM)
MIC at 24-48 hours (Cryptococcus neoformans [5]; Cryptococcus neoformans SA2): 1 µg/mL (≈ 3.56 µM)
MIC (Candida albicans [6]; C. albicans SA3): 8 µg/mL (≈ 28.5 µM)
MIC (Candida albicans [6]; Candida albicans ATCC 90028): 8 µg/mL (≈ 28.5 µM)
MIC (Candida albicans [6]; [19]): 2 µg/mL (≈ 7.12 µM)
MIC (Candida albicans [6]; [20]): 16 µg/mL (≈ 57 µM)
MIC (Candida albicans [6]; [21]): 8 µg/mL (≈ 28.5 µM)
MIC (Candida albicans [6]; [22]): 16 µg/mL (≈ 57 µM)
MIC (Candida albicans [6]; [23]): 4 µg/mL (≈ 14.2 µM)
MIC (Candida albicans [6]; [24]): 16 µg/mL (≈ 57 µM)
MIC (Candida albicans [6]; [25]): 16 µg/mL (≈ 57 µM)
MIC (Candida albicans [6]; [26]): 16 µg/mL (≈ 57 µM)
MIC (Candida albicans [6]; [27]): >16 µg/mL
MIC (Candida albicans [6]; [28]): 16 µg/mL (≈ 57 µM)
MIC (Cryptococcus neoformans [7]; Cryptococcus neoformans SA1): 1 µg/mL (≈ 3.56 µM)
MIC (Cryptococcus neoformans [7]; Cryptococcus neoformans SA2): 1 µg/mL (≈ 3.56 µM)
MIC (Candida albicans [8]; [29]): 2 µg/mL (≈ 7.12 µM)
MIC (Candida albicans [8]; [30]): 2 µg/mL (≈ 7.12 µM)
MIC (Candida albicans [8]; Candida albicans, 1st): 2 µg/mL (≈ 7.12 µM)
MIC (Candida albicans [8]; Candida albicans, 2nd): 4 µg/mL (≈ 14.2 µM)
MIC (Candida parapsilosis; 1st): 2 µg/mL (≈ 7.12 µM)
MIC (Candida parapsilosis; 2nd): 2 µg/mL (≈ 7.12 µM)
SMILES: [H]/N=C(\N)NN=C(CCCCCC)c1ccc(Cl)cc1 [NCL265]
Screen at 16 μg/mL [3]: No growth
antifungal activity against the two isolates of Candida albicans (Candida albicans [4]): high antifungal activity
activity against one or more isolates of Cryptococcus neoformans and Candida albicans (Candida albicans [6]): highly active
